Structures can show the parent of a compound that is named as a salt.
test system: asynchronous 3D7 chloroquine-sensitive P. falciparum infected red blood cells; assay: Labeled hypoxanthine incorporation assay (in vitro anti-malarial activity); format: cell-based; conditions: 3D7 chloroquine-sensitive strain, infected RBC, 48 h contact, [3H]-hypoxanthine incorporation; two independent experiments in duplicates; read-out: IC50 assessed on Plasmodium Falciparum

SMILES	IC50 [nM]
C[C@@H](COC(=O)N1CCC(n2c(=O)[nH]c3ccccc32)CC1)N(Cc1ccccc1)Cc1ccc(Br)cc1 [Compound 116, S)-2-(benzyl(4-bromobenzyl)amino)propyl 4-(2-oxo-2,3-dihydro-1H-benzo[d]imidazol-1-yl)piperidine-1-carboxylate hydrochloride]	2880

same assay, conditions: Plasmodium falciparum, 3D7, Erythrocyte, 3D7 chloroquine-sensitive strain, infected RBC, 48 h contact, [3H]-hypoxanthine incorporation; two independent experiments in duplicates; read-out: IC50 assessed on Plasmodium Falciparum

SMILES	IC50 [nM]
C[C@@H]1CC[C@H]2[C@@H](C)C(=O)O[C@@H]3O[C@@]4(C)CC[C@@H]1[C@]32OO4 [Artemisinine, reference compound]	28.7
C[C@@H](COC(=O)N1CCC(n2c(=O)n(S(=O)(=O)c3cccc4cccnc34)c3ccccc32)CC1)N(Cc1ccccc1)Cc1ccccc1 [Compound 60, (S)-2-(dibenzylamino)propyl 4-(2-oxo-3-(quinolin-8-ylsulfonyl)-2,3-dihydro-1H-benzo[d]imidazol-1-yl)piperidine-1-carboxylate]	780
O=C(OCCN(Cc1ccccc1)Cc1ccc(OCc2ccccc2)cc1)N1CCC(n2c(=O)[nH]c3ccccc32)CC1 [Compound 100, 2-(benzyl(4-(benzyloxy)benzyl)amino)ethyl 4-(2-oxo-2,3-dihydro-1H-benzo[d]imidazol-1-yl)piperidine-1-carboxylate]	3150
O=C(OCCN(Cc1ccccc1)Cc1c(F)cccc1F)N1CCC(n2c(=O)[nH]c3ccccc32)CC1 [Compound 101, 2-(benzyl(2,6-difluorobenzyl)amino)ethyl 4-(2-oxo-2,3-dihydro-1H-benzo[d]imidazol-1-yl)piperidine-1-carboxylate]	5370
C[C@@H](COC(=O)N1CCC(n2c(=O)[nH]c3ccccc32)CC1)N(Cc1ccccc1)Cc1ccco1 [Compound 102, (S)-2-(benzyl(furan-2-ylmethyl)amino)propyl 4-(2-oxo-2,3-dihydro-1H-benzo[d]imidazol-1-yl)piperidine-1-carboxylate]	7470
O=C(OCCN(Cc1ccccc1)Cc1cccc(OCc2ccccc2)c1)N1CCC(n2c(=O)[nH]c3ccccc32)CC1 [Compound 103, 2-(benzyl(3-(benzyloxy)benzyl)amino)ethyl 4-(2-oxo-2,3-dihydro-1H-benzo[d]imidazol-1-yl)piperidine-1-carboxylate]	3570
O=C(OCCN(C/C=C/c1ccccc1)Cc1ccccc1)N1CCC(n2c(=O)[nH]c3ccccc32)CC1 [Compound 104, (E)-2-(benzyl(cinnamyl)amino)ethyl 4-(2-oxo-2,3-dihydro-1H-benzo[d]imidazol-1-yl)piperidine-1-carboxylate]	4970
CC(C)(C)OC(=O)N(Cc1ccccc1)[C@H](COC(=O)N1CCC(n2c(=O)[nH]c3ccccc32)CC1)Cc1ccccc1 [Compound 106, (S)-2-(benzyl(tert-butoxycarbonyl)amino)-3-phenylpropyl 4-(2-oxo-2,3-dihydro-1H-benzo[d]imidazol-1-yl)piperidine-1-carboxylate]	828
CC(C)[C@@H](COC(=O)N1CCC(n2c(=O)[nH]c3ccccc32)CC1)N(Cc1ccccc1)Cc1ccccc1 [Compound 107, (S)-2-(dibenzylamino)-3-methylbutyl 4-(1,2-dihydro-2-oxobenzo[d]imidazol-3-yl)piperidine-1-carboxylate]	2810
CC(C)(C)C(COC(=O)N1CCC(n2c(=O)[nH]c3ccccc32)CC1)N(Cc1ccccc1)Cc1ccccc1 (centres unmarked) [Compound 109, 2-(dibenzylamino)-3,3-dimethylbutyl 4-(1,2-dihydro-2-oxobenzo[d]imidazol-3-yl)piperidine-1-carboxylate]	2400
CC(C)(COC(=O)N1CCC(n2c(=O)[nH]c3ccccc32)CC1)N(Cc1ccccc1)Cc1ccccc1 [Compound 111, 2-(dibenzylamino)-2-methylpropyl 4-(1,2-dihydro-2-oxobenzo[d]imidazol-3-yl)piperidine-1-carboxylate]	2280
C[C@@H](COC(=O)N1CCC(n2c(=O)[nH]c3ccccc32)CC1)N(Cc1ccccc1)Cc1ccc([N+](=O)[O-])cc1 [Compound 113, (S)-2-(benzyl(4-nitrobenzyl)amino)propyl 4-(2-oxo-2,3-dihydro-1H-benzo[d]imidazol-1-yl)piperidine-1-carboxylate]	2450
COc1ccc(CN(CCCOC(=O)N2CCC(n3c(=O)[nH]c4ccccc43)CC2)Cc2ccccc2)cc1 [Compound 117, 3-(benzyl(4-methoxybenzyl)amino)propyl 4-(2-oxo-2,3-dihydro-1H-benzo[d]imidazol-1-yl)piperidine-1-carboxylate hydrochloride]	1870
O=C(OCCN(Cc1ccccc1)Cc1cccc(Cl)c1)N1CCC(n2c(=O)[nH]c3ccccc32)CC1 [Compound 124, 2-(benzyl(3-chlorobenzyl)amino)ethyl 4-(2-oxo-2,3-dihydro-1H-benzo[d]imidazol-1-yl)piperidine-1-carboxylate hydrochloride]	3310
C[C@@H](COC(=O)N1CCC(n2c(=O)[nH]c3ccccc32)CC1)N(Cc1ccccc1)Cc1cccc(Oc2ccccc2)c1 [Compound 127, (S)-2-(benzyl(3-phenoxybenzyl)amino)propyl 4-(2-oxo-2,3-dihydro-1H-benzo[d]imidazol-1-yl)piperidine-1-carboxylate hydrochloride]	2670
C[C@@H](COC(=O)N1CCC(n2c(=O)[nH]c3ccccc32)CC1)N(Cc1ccccc1)Cc1ccc(Cl)cc1 [Compound 129, (S)-2-(benzyl(4-chlorobenzyl)amino)propyl 4-(2-oxo-2,3-dihydro-1H-benzo[d]imidazol-1-yl)piperidine-1-carboxylate hydrochloride]	3630
O=C(OCCN(Cc1ccccc1)Cc1cccc2ccccc12)N1CCC(n2c(=O)[nH]c3ccccc32)CC1 [Compound 130, 2-(benzyl(naphthalen-1-ylmethyl)amino)ethyl 4-(2-oxo-2,3-dihydro-1H-benzo[d]imidazol-1-yl)piperidine-1-carboxylate hydrochloride]	3870
O=C(OCCCN(Cc1ccccc1)Cc1cccnc1)N1CCC(n2c(=O)[nH]c3ccccc32)CC1 [Compound 134, 3-(benzyl(pyridin-3-ylmethyl)amino)propyl 4-(2-oxo-2,3-dihydro-1H-benzo[d]imidazol-1-yl)piperidine-1-carboxylate hydrochloride]	1290
O=C(OCCCN(CCOCc1ccccc1)Cc1ccccc1)N1CCC(n2c(=O)[nH]c3ccccc32)CC1 [Compound 143, 3-(benzyl(2-(benzyloxy)ethyl)amino)propyl 4-(2-oxo-2,3-dihydro-1H-benzo[d]imidazol-1-yl)piperidine-1-carboxylate hydrochloride]	4270
O=C(OCCCN(Cc1ccccc1)Cc1ccc(F)cc1)N1CCC(n2c(=O)[nH]c3ccccc32)CC1 [Compound 147, 3-(benzyl(4-fluorobenzyl)amino)propyl 4-(2-oxo-2,3-dihydro-1H-benzo[d]imidazol-1-yl)piperidine-1-carboxylate hydrochloride]	2220
O=C(OCCCN(CCCc1ccccc1)Cc1ccccc1)N1CCC(n2c(=O)[nH]c3ccccc32)CC1 [Compound 148, 3-(benzyl(3-phenylpropyl)amino)propyl 4-(2-oxo-2,3-dihydro-1H-benzo[d]imidazol-1-yl)piperidine-1-carboxylate hydrochloride]	4610
COc1ccccc1CN(CCOC(=O)N1CCC(n2c(=O)[nH]c3ccccc32)CC1)Cc1ccccc1 [Compound 151, 2-(benzyl(2-methoxybenzyl)amino)ethyl 4-(2-oxo-2,3-dihydro-1H-benzo[d]imidazol-1-yl)piperidine-1-carboxylate]	4660
CCCc1ccc(S(=O)(=O)N(c2ccccc2)C2CCN(C(=O)OC[C@H](C)N(Cc3ccccc3)Cc3ccccc3)CC2)cc1 [Compound 154, (S)-2-(dibenzylamino)propyl 4-(N-phenyl-4-propylphenylsulfonamido)piperidine-1-carboxylate]	1590
COc1ccc(S(=O)(=O)N(c2ccccc2)C2CCN(C(=O)OC[C@H](Cc3ccccc3)N(Cc3ccccc3)Cc3ccccc3)CC2)cc1 [Compound 157, (S)-2-(dibenzylamino)-3-phenylpropyl 4-(N-phenyl-4-methoxyphenylsulfonamido)piperidine-1-carboxylate]	828
C[C@@H](COC(=O)N1CCC(N(c2ccccc2)S(=O)(=O)c2ccc(C(F)(F)F)cc2)CC1)N(Cc1ccccc1)Cc1ccccc1 [Compound 158, (S)-2-(dibenzylamino)propyl 4-(N-phenyl-4-(trifluoromethyl)phenylsulfonamido)piperidine-1-carboxylate]	355
C[C@@H](COC(=O)N1CCC(N(c2ccccc2)S(=O)(=O)c2cccc3ccccc23)CC1)N(Cc1ccccc1)Cc1ccccc1 [Compound 161, (S)-2-(dibenzylamino)propyl 4-(N-phenyl-naphthalen-1-ylsulfonamido)piperidine-1-carboxylate]	290
O=C(OC[C@H](Cc1ccccc1)N(Cc1ccccc1)Cc1ccccc1)N1CCC(N(c2ccccc2)S(=O)(=O)c2cccc3ccccc23)CC1 [Compound 162, (S)-2-(dibenzylamino)-3-phenylpropyl 4-(N-phenyl-naphthalen-1-ylsulfonamido)piperidine-1-carboxylate]	1330
C[C@@H](COC(=O)N1CCC(Nc2ccccc2S(=O)(=O)c2ccccc2)CC1)N(Cc1ccccc1)Cc1ccccc1 [Compound 164, (S)-2-(dibenzylamino)propyl 4-(2-(phenylsulfonyl)phenylamino)piperidine-1-carboxylate]	1260
C[C@@H](COC(=O)N1CCC(N(C)c2ccccc2)CC1)N(Cc1ccccc1)Cc1ccccc1 [Compound 166, (S)-2-(dibenzylamino)propyl 4-(N-methyl-N-phenylamino)piperidine-1-carboxylate]	3690

same assay, conditions: Plasmodium falciparum, 3D7, Erythrocyte, read-out: IC50 assessed on Plasmodium Falciparum

SMILES	IC50 [nM]
C[C@H]1[C@H](OC(=O)CCC(=O)O)O[C@@H]2O[C@@]3(C)CC[C@H]4[C@H](C)CC[C@@H]1[C@@]24OO3 [Artesunate, reference compound]	9.7
CCN(CC)CCCC(C)Nc1ccnc2cc(Cl)ccc12 (centres unmarked) [Chloroquine, reference compound]	10.3

From patent US20100292214A1, “Compounds with Antiparasitic Activity, Applications thereof to the Treatment of Infectious Diseases Caused by Apicomplexans” (commissariat a l'Energie Atomique, priority 2007, published 2010)
